Measured values from the supplement of paper PMC10307832.

Assays:
Assay in all cases: relative viability (nuclei count vs DMSO), 5 days (fraction); higher = more cells survive
BI-2536 + Trametinib = compound: CC[C@@H]1C(=O)N(C)c2cnc(Nc3ccc(C(=O)NC4CCN(C)CC4)cc3OC)nc2N1C1CCCC1 [BI-2536] + CC(=O)Nc1cccc(-n2c(=O)n(C3CC3)c(=O)c3c(Nc4ccc(I)cc4F)n(C)c(=O)c(C)c32)c1 [Trametinib] (partner 0.02 µM)
Method in brief: (§1)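 Five library-drug doses in √10 steps were combined with a fixed anchor-drug dose, or a single drug was given alone, by pin tool to lung cancer cell lines in 1536-well plates the day after seeding. Nuclei were stained and counted after 5 days. Relative viability is the nuclei count in treated wells over that in vehicle wells, taken as the median of duplicate plates.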

BI-2536 + Pictilisib = compound: CC[C@@H]1C(=O)N(C)c2cnc(Nc3ccc(C(=O)NC4CCN(C)CC4)cc3OC)nc2N1C1CCCC1 [BI-2536] + CS(=O)(=O)N1CCN(Cc2cc3nc(-c4cccc5[nH]ncc45)nc(N4CCOCC4)c3s2)CC1 [Pictilisib] (partner 1 µM)
Method in brief: as §1

[1] = compound: CC1CC(=O)N(C2=CN=C(N=C2N1C3CCCC3)NC4=C(C=C(C=C4)C(=O)NC5CCN(CC5)C)OC)C [NPK76-II-72-1] + Cc1nc(Nc2ncc(C(=O)Nc3c(C)cccc3Cl)s2)cc(N2CCN(CCO)CC2)n1 [Dasatinib] (partner 0.075 µM)
Method in brief: as §1

BI-2536 + Foretinib = compound: CC[C@@H]1C(=O)N(C)c2cnc(Nc3ccc(C(=O)NC4CCN(C)CC4)cc3OC)nc2N1C1CCCC1 [BI-2536] + COc1cc2c(Oc3ccc(NC(=O)C4(C(=O)Nc5ccc(F)cc5)CC4)cc3F)ccnc2cc1OCCCN1CCOCC1 [Foretinib] (partner 0.25 µM)
Method in brief: as §1

Cell Line	relative viability (BI-2536 + Trametinib; first compound 0.01 µM)	relative viability (BI-2536 + Trametinib; first compound 0.03162 µM)	relative viability (BI-2536 + Trametinib; first compound 0.1 µM)	relative viability (BI-2536 + Trametinib; first compound 0.3162 µM)	relative viability (BI-2536 + Trametinib; first compound 1 µM)	relative viability (BI-2536 + Pictilisib; first compound 0.01 µM)	relative viability (BI-2536 + Pictilisib; first compound 0.03162 µM)	relative viability (BI-2536 + Pictilisib; first compound 0.1 µM)	relative viability (BI-2536 + Pictilisib; first compound 0.3162 µM)	relative viability (BI-2536 + Pictilisib; first compound 1 µM)	relative viability ([1]; first compound 0.01 µM)	relative viability ([1]; first compound 0.03162 µM)	relative viability ([1]; first compound 0.1 µM)	relative viability ([1]; first compound 0.3162 µM)	relative viability ([1]; first compound 1 µM)	relative viability (BI-2536 + Foretinib; first compound 0.01 µM)	relative viability (BI-2536 + Foretinib; first compound 0.03162 µM)	relative viability (BI-2536 + Foretinib; first compound 0.1 µM)	relative viability (BI-2536 + Foretinib; first compound 0.3162 µM)	relative viability (BI-2536 + Foretinib; first compound 1 µM)
HCC-44	1.04	1.04	1.03	0.323	0.275	0.68	0.769	0.257	0.0696	0.0951	–	–	–	–	–	–	–	–	–	–
HCC-827	0.594	0.538	0.506	0.324	0.225	0.917	1.02	0.976	0.533	0.339	0.252	0.319	0.435	0.388	0.37	1.03	0.958	0.86	0.254	0.234
NCI-H1623	–	–	–	–	–	–	–	–	–	–	0.562	0.522	0.554	0.401	0.545	0.912	0.864	0.83	0.345	0.321
NCI-H2347	0.261	0.302	0.282	0.264	0.238	0.471	0.523	0.596	0.463	0.32	0.309	0.297	0.348	0.348	0.327	1.07	0.742	0.933	0.311	0.292
PC-14	0.847	0.71	0.0723	0.0556	0.0339	0.688	0.563	0.156	0.0423	0.0236	0.271	0.238	0.272	0.227	0.293	0.961	0.93	0.895	0.0827	0.0753
NCI-H1651	0.786	0.868	0.789	0.518	0.123	0.524	0.372	0.488	0.0623	0.055	0.386	0.46	0.413	0.429	0.419	0.628	0.776	0.536	0.0828	0.0854
HARA	0.765	0.971	0.545	0.0894	0.156	0.372	0.535	0.147	0.072	0.0745	0.254	0.233	0.168	0.237	0.219	0.97	1.07	0.746	0.0569	0.0893
NCI-H1650	0.674	0.497	0.456	0.136	0.136	0.567	0.366	0.146	0.162	0.0901	0.308	0.314	0.405	0.293	0.265	1.16	1.14	0.484	0.135	0.115
NCI-H1395	1.06	0.635	0.611	0.353	0.369	0.622	0.524	0.747	0.339	0.357	0.433	0.36	0.424	0.417	0.369	0.911	1.1	0.691	0.339	0.327
LU99A	0.525	0.647	0.562	0.196	0.192	0.308	0.301	0.14	0.128	0.138	0.404	0.505	0.51	0.442	0.674	0.716	0.812	0.329	0.222	0.175
NCI-H1355	0.428	0.47	0.46	0.176	0.174	0.477	0.43	0.227	0.161	0.184	0.689	0.627	0.744	0.617	0.731	0.871	0.968	0.601	0.149	0.18
HCC-78	0.829	0.837	0.814	0.562	0.246	0.26	0.25	0.166	0.13	0.0467	0.384	0.363	0.449	0.346	0.402	0.554	0.505	0.534	0.402	0.226
NCI-H1563	–	–	–	–	–	0.699	0.61	0.558	0.578	0.511	0.465	0.416	0.469	0.461	0.425	0.905	1.06	0.923	0.67	0.552
HCC-15	0.389	0.319	0.364	0.128	0.125	0.746	0.795	0.365	0.124	0.117	0.598	0.637	0.599	0.642	0.649	0.854	0.648	0.361	0.137	0.143
EKVX	0.313	0.343	0.379	0.155	0.151	0.47	0.483	0.444	0.14	0.123	0.58	0.528	0.519	–	0.652	0.702	0.833	0.755	0.237	1.08
NCI-H2087	0.18	0.183	0.147	0.0838	0.0815	1	0.872	0.381	0.192	0.143	0.873	0.873	0.813	0.941	0.71	1.03	1.17	0.476	0.133	0.124
LK-2	0.787	0.752	0.746	0.173	0.181	0.569	0.389	0.375	0.196	0.297	0.299	0.275	0.322	0.233	0.244	1.32	0.923	0.861	0.18	0.162
